# Measured values: paper PMC10859961, “Ir(III) Half-Sandwich Photosensitizers with a π-Expansive Ligand for Efficient Anticancer Photodynamic Therapy” (Journal of Medicinal Chemistry, 2024)
# Where two headings read alike, the source gives them in different places.
# How the values were obtained:
# [1] = 1O2 quantum yield determination with DPBF; conditions: acetonitrile
# Procedure: It was performed for complexes 1–8 in acetonitrile according to a relative procedure adapted from the literature[132]−[134] based on monitoring the oxidation of 1,3-diphenylisobenzofuran (DPBF, yellow) to 1,2-dibenzoylbenzene (colorless) photosensitized by the Ir(III) complexes. DPBF was used as an ^1O2 scavenger due to its fast reaction with this molecule. Fresh stock air-equilibrated solutions of photosensitizers (6.00 × 10^–6 M) and DPBF (1.50 × 10^–4 M) in acetonitrile were prepared. In a quartz cell, 1 mL of DPBF solution, 0.5 mL of complex solution, and 1.5 mL of acetonitrile were mixed to prepare a final solution with 5.00 × 10^–5 M DPBF and 1.00 × 10^–6 M complex. The final solutions were studied by recording UV–vis absorption spectra at room temperature in dark conditions (over a period of 6 min with time intervals of 2 min), under blue light irradiation (λexc = 470 nm, “Medusa” photoreactor) and under green light irradiation (λexc = 530 nm, “Medusa” photoreactor) for 5 s irradiation intervals during a total exposure period of 20 s. Absorption UV–vis spectra were recorded after every irradiation interval.
# The consumption of DPBF probe was measured by monitoring its absorbance intensity decrease at 410 nm with irradiation time. ^1O2 generation quantum yield (ϕΔ) was calculated from eq 1 using Rose Bengal or [Ru(bpy)3]^2+ as reference for complexes with pbpz and pbpn ligands, respectively: [drawing 22] 1 where s and ref subscripts correspond to the complex and the reference, ϕΔ is the ^1O2 generation quantum yield (0.53 for Rose Bengal[135] and 0.56 for [Ru(bpy)3]Cl2[132] in degassed acetonitrile), S is the slope of the plots of the −ln(normalized absorbance) of DPBF at 410 nm vs the irradiation time, and F is the correction factor of absorption, which is given by F = 1–10^–O.D. (where O.D. is the optical density at 470 nm of solutions of complexes and references). The reproducibility of the results was confirmed by performing each experiment three times.
# The stability of DPBF probe was studied in dark conditions and under light irradiation. In dark conditions and under green light irradiation the probe remains unaltered. However, under blue light irradiation, a photobleaching of DPBF was observed. Probe consumption was approximately 6.5% every 5 s. Therefore, a working interval of 20 s was chosen, where 75% of the probe remains stable. To calculate the ϕΔ, a correction factor was applied to the absorbance at 410 nm: a 6.5% of the previous value was added to each absorbance to counteract self-consumption of the probe (i.e., to the absorbance at 10 s, a 6.5% of the absorbance at 5 s was added).
# [2] = degassed acetonitrile; cited from earlier work
# [3] = H2O/DMSO (95:5); cited from earlier work
# CT26 = test system: CT26; design: method as in p (Pozza et al., Inorg. Chem. 2023); conditions: 540 nm, dose 9 J cm‐2, ref p (Pozza et al., Inorg. Chem. 2023); cited from earlier work
# HT29 = test system: HT29; design: method as in p (Pozza et al., Inorg. Chem. 2023); conditions: 540 nm, dose 9 J cm‐2, ref p (Pozza et al., Inorg. Chem. 2023); cited from earlier work
# RPE‐1 = test system: RPE‐1; design: method as in p (Pozza et al., Inorg. Chem. 2023); conditions: cited from earlier work
# HeLa = conditions: 425 nm, dose 1.2 J cm‐2, ref e (ACS Appl. Mater. Interfaces, 2017, 9, 42471; main text ref 24); cited from earlier work
# A549 = conditions: 425 nm, dose 1.2 J cm‐2, ref e (ACS Appl. Mater. Interfaces, 2017, 9, 42471; main text ref 24); cited from earlier work
# A549 cancer cells = assay: MTT cell viability assay, dark or photoactivated; assay type: cell-based, human; conditions: 4 h incubation, kept in the dark, viability after 48 h, MTT, read-out: IC50 dark
# Procedure: Cells were cultured in 96-well plates at a density of 3000 (A549), 2500 (HeLa), or 5000 (PC-3, 1BR.3.G, and MRC-5) cells per well in cell culture medium and allowed to attach for 24 h. Solutions of the complexes at different concentrations were prepared for cell treatments. In all cases, the solid compounds were weighed using an analytical balance (Mettler Toledo AX205DR) to ensure precise measurements. Subsequently, 5 mM solutions were prepared using DMSO. Solutions were then diluted in water to reach a concentration of 1 mM and then, aliquots were taken and diluted in culture medium to obtain solutions ranging from 0 to 50 μM. […] The cells were treated with these solutions in dark conditions or following the photoactivation protocol (see below). 48 h later the treatments were removed, and cells were washed with phosphate-buffered saline (PBS).
# Initially, the effect of the complexes on the cell viability was determined by the 3-(4,5-dimethylthiazol-2-yl)-2,5-diphenyltetrazolium bromide (MTT) assay.[147] The cells were incubated for 2 h with 100 μL of culture medium together with 10 μL of MTT (Sigma-Aldrich) at 0.5 mg/mL. After discarding the medium, DMSO was added to each well to dissolve the purple formazan crystals. The absorbance of each well was determined on a Multiscan Plate Reader (Synergy 4, Biotek, Winooski) at a wavelength of 570 nm. Cell viability was also assessed using the CyQUANT Direct Cell Proliferation Assay (Thermo Fisher Scientific), following the manufacturer’s instructions. Briefly, after the treatments, the cells were washed with PBS, and an equal volume of culture medium and CyQUANT mix was added to each well. The plates were then incubated for 1 h at 37 °C. Subsequently, the fluorescence intensity was bottom read using a Multiscan Plate Reader (Synergy 4, Biotek, Winooski) with excitation and emission filters of 485 and 528 nm, respectively. In both assays, at least three replicates were measured for each treatment. The concentration that reduces the cell viability by 50% (IC50) was established using the Gen5 software (BioTek). Three independent experiments were carried out for each compound. […] The phototoxicity index (PI = IC50,dark/IC50,light) was determined.
# To assess the photodynamic activity of the complexes, cells were incubated with the complexes for 4 h to enable their intracellular accumulation. The cells were then irradiated with light with a wavelength of 460 nm (blue), 530 nm (green), or 655 nm (red) for 1 h using a LED system (LuxLight) with an effective power of 6.7 mW cm^–2, which provides a total light dose of 24.1 J cm^–2. The LED system was positioned at 25 mm from the cell culture plates.
# [4] = pKa determination (absorbance vs pH); assay type: physicochemical; conditions: H2O/DMSO (98/2, v/v) solution; DMSO/H2O (2/98, v/v), Bu4NBF4 5 mM; piperidine ring; read-out: pKa
# Procedure: Solutions of complexes 5 and 6 (2.00 × 10^–5 M) and Imepip ligand (2.00 × 10^–3 M) in H2O/DMSO (98/2, v/v) mixture with n-Bu4NBF4 (5 mM) were prepared. The presence of the salt ensured the conductivity of the media. Evolution of the peaks was studied at different pH by recording the absorbance spectrum. Aliquots of 10 μL of HCl (0.002–0.020 M) or NaOH (0.002–0.020 M) were added to a solution of 2.4 mL of complex to vary the pH. The absorbance versus pH plot enables us to determine one constant according to the equation from the Wilson and Lester method (eq 2):[146] [drawing 23] 2 where Aa is the absorbance for the acid species, Ab is the absorbance for the basic species, and Am is the absorbance of the mixture. The intersection obtained by representing log(Am – Aa)/(Ab – Am) versus pH provides the pKa.
# SK‐MEL28 = conditions: visible light, dose 100 J cm‐2, ref m (Inorg. Chem. 2016, 55, 83); cited from earlier work
# [5] = 540 nm, dose 9 J cm‐2, ref p (Pozza et al., Inorg. Chem. 2023)
# [6] = 620 nm, dose 6.7 J cm‐2, ref p (Pozza et al., Inorg. Chem. 2023)
smiles,measurement,setting,value
"[Cl][Ru][Cl].c1ccc(-c2ccccn2)nc1.c1ccc(-c2ccccn2)nc1.c1ccc(-c2ccccn2)nc1 [[Ru(bpy)3]Cl2, reference compound]","Slope (S) of ‐ln(normalized Abs) vs time, photooxidation of DPBF",[1]; λir = 470 nm,0.0535
same,"Slope (S) of ‐ln(normalized Abs) vs time, photooxidation of DPBF",[1]; λir = 530 nm,0.0057
same,1O2 generation quantum yield (ϕΔ) of reference,[2],0.56
same,1O2 generation quantum yield (ϕΔ) of reference,[3],0.18
[Ru+2].c1ccc2cc3nc4c5cccnc5c5ncccc5c4nc3cc2c1.c1ccc2cc3nc4c5cccnc5c5ncccc5c4nc3cc2c1.c1cnc2c(c1)ccc1cccnc12 [[Ru(dppn)2(phen)]2+],PI,CT26,1666
same,PI/Dose,CT26,185.1
same,PI,HT29,556
same,PI/Dose,HT29,61.8
same,PI,RPE‐1; [5],556
same,PI/Dose,RPE‐1; [5],61.8
same,PI,RPE‐1; [6],333
same,PI/Dose,RPE‐1; [6],49.7
F[P-](F)(F)(F)(F)F.[Ir+3].[c-]1ccccc1-c1ccccn1.[c-]1ccccc1-c1ccccn1.c1ccc2cc3[nH]c(-c4ccc5ccccc5n4)nc3cc2c1 [[Ir(N^∧N)(ppy)2]PF6],PI/Dose,HeLa,397
same,PI/Dose,A549,268
"c1cn(CCN2CCCCC2)cn1 [(N-ethylpiperidyl)imidazole, reference compound]",IC50,A549 cancer cells; A549,68 ± 2 µM
same,IC50,"A549 cancer cells; Homo sapiens, A549, A549",> 50 µM
same,pKa,[4],7.1
O=C([O-])c1c(Cl)c(Cl)c(Cl)c(Cl)c1-c1c2cc(I)c(=O)c(I)c-2oc2c(I)c([O-])c(I)cc12.[Na+].[Na+] [Rose Bengal],1O2 generation quantum yield (ϕΔ) of reference,[2],0.53
same,1O2 generation quantum yield (ϕΔ) of reference,[3],0.76
[Ru+2].[c-]1cccc2c1c1ncccc1c1nc3cc4ccccc4cc3nc21.c1ccc(-c2ccccn2)nc1.c1ccc(-c2ccccn2)nc1 [[Ru(bpy)2(pbpn)]+],PI,SK‐MEL28,> 1400
same,PI/Dose,SK‐MEL28,> 140
